Values of other authors as cited in patent publication US20100015174A1, “METHOD TO CONTROL DENGUE VIRUSES IN HUMANS BY PICOLINIC ACID AND DERIVATIVES THEREOF” (priority 2008, published 2010).

What was measured:
[1] = tested on: human aortic endothelial cells; details: cited from earlier work
J2 retrovirus = details: GG2EE transformed macrophages; cited from earlier work

Compound | change of reactive oxygen species (ROS) [1] | change of vascular adhesion molecules (VCAM-I) [1] | increase of NAD(P)H levels [1] | J2 retrovirus expression (J2 retrovirus)
O=C(O)c1cccnc1 [Niacin, Nicotinic acid] | > 50% | 80% | 54% | 
IFN-gamma: type II (immune) interferon |  |  |  | not affected
